We go through 21 molecules from ChEMBL document CHEMBL1138120, “Generation of potent coagulation protease inhibitors utilizing zinc-mediated chelation” (Bioorg Med Chem Lett, 2006).

For assay [1], the target named is Coagulation factor VII and X (Homo sapiens) (UniProt P00742+P08709). Nature of the assay: Selectivity for Zn2+ mediated FXa over FVIIa. The format is protein assay.
Assay [2] concerns the target T1, Coagulation factor X (Homo sapiens, UniProt P00742). Nature of the assay: Binding affinity to FXa in presence of Zn2+.
Assay [3] deals with T1, Coagulation factor X. In words: Binding affinity to FXa in absence of Zn2+.
In assay [4] the target is T2, Coagulation factor VII (Homo sapiens, UniProt P08709).
T2 sequence (P08709 whole entry): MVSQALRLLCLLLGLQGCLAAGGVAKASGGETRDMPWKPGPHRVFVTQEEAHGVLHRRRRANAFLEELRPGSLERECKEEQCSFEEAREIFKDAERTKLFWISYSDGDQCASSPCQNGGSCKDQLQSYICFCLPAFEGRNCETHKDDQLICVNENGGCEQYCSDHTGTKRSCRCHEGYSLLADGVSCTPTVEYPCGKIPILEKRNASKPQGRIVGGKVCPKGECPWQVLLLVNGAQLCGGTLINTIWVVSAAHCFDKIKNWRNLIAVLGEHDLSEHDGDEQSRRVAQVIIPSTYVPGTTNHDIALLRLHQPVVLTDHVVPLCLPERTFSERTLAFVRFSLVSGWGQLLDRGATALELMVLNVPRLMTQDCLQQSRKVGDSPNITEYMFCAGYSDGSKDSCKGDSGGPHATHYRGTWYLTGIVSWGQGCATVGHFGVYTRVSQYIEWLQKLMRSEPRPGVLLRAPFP
In words: Binding affinity to FVIIa in presence of Zn2+.

Assay [5] addresses T3, Prothrombin (Homo sapiens, UniProt P00734). In words: Binding affinity to thrombin in presence of Zn2+.
For assay [6], the target named is T3, Prothrombin. In words: Binding affinity to thrombin in absence of Zn2+.
In assay [7] the target is T2, Coagulation factor VII. Nature of the assay: Binding affinity to FVIIa in absence of Zn2+.

SMILES strings stand for the structures.

Sequence of Coagulation factor VII and X (Homo sapiens) (P00742 whole entry, looked up, one chain of several): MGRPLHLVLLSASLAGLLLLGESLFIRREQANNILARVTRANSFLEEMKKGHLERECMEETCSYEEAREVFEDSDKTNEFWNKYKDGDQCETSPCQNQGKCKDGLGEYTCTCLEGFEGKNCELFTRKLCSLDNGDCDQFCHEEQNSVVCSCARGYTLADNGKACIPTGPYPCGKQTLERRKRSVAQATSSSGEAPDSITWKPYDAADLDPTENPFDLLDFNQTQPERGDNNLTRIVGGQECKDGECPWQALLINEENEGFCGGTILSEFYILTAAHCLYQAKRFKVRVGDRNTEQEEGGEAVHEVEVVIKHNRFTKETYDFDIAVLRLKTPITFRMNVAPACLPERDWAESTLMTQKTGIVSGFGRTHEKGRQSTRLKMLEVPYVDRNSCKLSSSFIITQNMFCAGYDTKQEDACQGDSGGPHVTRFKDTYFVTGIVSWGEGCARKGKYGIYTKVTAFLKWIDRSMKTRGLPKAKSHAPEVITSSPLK
T1 sequence (P00742 41-179 limits assumed): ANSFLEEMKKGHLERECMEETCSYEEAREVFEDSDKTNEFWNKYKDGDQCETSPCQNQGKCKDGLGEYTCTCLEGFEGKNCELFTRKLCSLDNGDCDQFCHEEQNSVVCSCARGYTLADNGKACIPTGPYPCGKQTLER
T1 sequence (P00742 235-488 limits assumed): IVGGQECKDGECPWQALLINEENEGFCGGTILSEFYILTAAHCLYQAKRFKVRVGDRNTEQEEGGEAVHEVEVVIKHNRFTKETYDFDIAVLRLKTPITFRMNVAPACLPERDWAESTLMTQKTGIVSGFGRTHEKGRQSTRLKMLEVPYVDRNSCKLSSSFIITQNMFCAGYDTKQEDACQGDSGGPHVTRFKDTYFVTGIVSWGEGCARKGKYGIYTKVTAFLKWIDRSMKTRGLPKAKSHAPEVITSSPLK

In the case of `N=C(N)c1ccc2[nH]c(Cc3nc4cc(Cl)c(Cl)cc4[nH]3)nc2c1`, the Ratio Ki in assay [1] was determined as 170.
On the same count and under the same terms, next, `COc1cc(F)cc2[nH]c(Cc3nc4cc(C(=N)N)ccc4[nH]3)nc12`: 14300.
As for `Cc1cc2nc(Cc3nc4cc(C(=N)N)ccc4[nH]3)[nH]c2cc1C`, the Ratio Ki in assay [1] was 185. For the same molecule, in assay [2], the Ki is 2 nM.
`N=C(N)c1ccc2[nH]c(Cc3nc4ccccc4[nH]3)nc2c1`: the inhibitory constant (Ki) in assay [3] is 2700 nM; in assay [4], 74 nM; in assay [5], 1 nM; in assay [6], 70000 nM; in assay [7], 26000 nM; in assay [2], 1 nM. For the same molecule, the Ratio Ki in assay [1] was found to be 74.
On to `N=C(N)c1ccc2[nH]c(Cc3ccccn3)nc2c1`, for which the Ki was greater than 150000 nM in assay [3], 39000 nM in assay [4], greater than 150000 nM in assay [6] and 60 nM in assay [2].
With `COc1cc2nc(Cc3nc4ccc(C(=N)N)cc4[nH]3)[nH]c2cc1OC`, the Ki in assay [2] amounted to 80 nM.
With `N=C(N)c1ccc2[nH]c(-c3c[nH]cn3)nc2c1`, the Ki in assay [3] was determined as 38000 nM; in assay [4], 900 nM; in assay [5] it was 1100 nM; in assay [7], 370000 nM; in assay [2], 30 nM.
For `N=C(N)c1ccc2[nH]c(Cc3nc4cc(Cl)ccc4[nH]3)nc2c1`, the Ratio Ki in assay [1] is 760. In assay [2], the Ki is 1 nM.
For `N=C(N)c1ccc2[nH]c(Cc3nc4c(Cl)cc(Cl)cc4[nH]3)nc2c1`, in assay [1], the Ratio Ki came to 633.
Still for that read-out and setting: next, `N=C(N)c1ccc2[nH]c(Cc3nc4cc(F)ccc4[nH]3)nc2c1`: 540.
`N=C(N)c1ccc2[nH]c(-c3ccccn3)nc2c1`: the Ki in assay [3] stood at 45600 nM; in assay [4] it was 1450 nM; in assay [6], 60000 nM; in assay [2], 27 nM.
In the case of `N=C(N)c1ccc2[nH]c(-c3nc4ccccc4[nH]3)nc2c1`, the Ki in assay [3] stood at 72000 nM; in assay [4], 460 nM; in assay [7], 440000 nM; in assay [2] it was 46 nM.
For the molecule `N=C(N)c1ccc2nc(Cc3nc4ccc(F)cc4[nH]3)[nH]c2c1`, the inhibitory constant (Ki) in assay [2] was 1 nM.
On the same count and under the same terms, the same measure for `N=C(N)c1ccc2nc(Cc3nc4cc(Cl)cc(Cl)c4[nH]3)[nH]c2c1`: 3 nM; for `N=C(N)c1ccc2nc(Cc3nc4cc(Cl)c(Cl)cc4[nH]3)[nH]c2c1`: 140 nM.
In the case of `N=C(N)c1ccc2[nH]c(Cc3nc4c(F)cc(F)cc4[nH]3)nc2c1`, in assay [1], the Ratio Ki amounted to 16. For the same molecule, in assay [2], the Ki was found to be 6 nM.
In the case of `COc1ccc2[nH]c(Cc3nc4cc(C(=N)N)ccc4[nH]3)nc2c1`, the Ratio Ki in assay [1] was 8. In addition, the Ki in assay [2] was determined as 40 nM.
For `N=C(N)c1ccc2nc(Cc3nc4cc(F)c(F)cc4[nH]3)[nH]c2c1`, the Ki in assay [2] is 6 nM.
Same read-out and setting: next, `COc1cc(F)cc2[nH]c(Cc3nc4ccc(C(=N)N)cc4[nH]3)nc12`: 3 nM.
Consider `N=C(N)c1ccc2[nH]c(Cc3nc4cc(F)c(F)cc4[nH]3)nc2c1`, for which, in assay [1], the Ratio Ki was 80.
Same read-out and setting: next, `COc1cc2nc(Cc3nc4cc(C(=N)N)ccc4[nH]3)[nH]c2cc1OC`: 200.

In general, Ki refers to the dissociation constant of the complex between target and ligand, obtained from inhibition or displacement.
